Experimental data published in patent publication US12369577B2, “Monoterpenoid/phenylpropanoid-containing compounds and methods of their making and use as baits” (KITTRICH CORPORATION, priority 2016, dated 2025).
“Also recorded” adds a separate entry of the source.

Tests used:
[1] = system: house flies (Musca domestica); experiment: House fly feeding assay, solid food, choice assay; assay type: in vivo; conditions: 15% w/w food; treated and untreated food; 5-days post exposure (FIG. 6)
Source text: The choice assay included one untreated food source of 1:1 evaporated milk powder and sucrose and one treated food source (with toxic biorational compounds) comprised of the same materials. Moreover, toxic insecticidal bait compounds were incorporated into the food mixture at a concentration of 15% w/w food. This increased concentration of toxic insecticidal bait was chosen to account for the concomitant lower percentage mortality expected due to the presence of both a treated and untreated food source. Mortality was recorded at 5-days post exposure.
Data is presented as average percentage mortality with the standard error of the mean (SEM). This number was compared to the total number of flies introduced to each aquaria for each replicate, and a percentage mortality was calculated. A minimum of three replicates were performed for each compound.

[2] = system: house flies (Musca domestica); conditions: in vivo
Experimental: House flies (Musca domestica) were obtained from an established colony maintained by the Pesticide Toxicology Laboratory, Department of Entomology at iowa State University, Ames IA Flies were maintained according to standard laboratory protocols. House flies were supplied with water via cotton wick and solid support of sugar and dry milk (mixed 1:1), ad libitum. Prior to testing, house flies were maintained at a temperature of 24±2° C., were held at 30%±10% relative humidity, and a 12:12 hr light:dark photoperiod. Flies were randomly chosen from one of three separate Bioquip BugDorm® cages on different days to prevent a potential bias in health.

[3] = system: house flies (Musca domestica); experiment: House fly feeding assay, solid food, non-choice; assay type: in vivo; conditions: 5% weight/weight food compound plus 0.5% Z-9-tricosene (Muscalure) (FIG. 5)
Source text: Approximately 20-30 adult house flies (Musca domestica) were introduced into aquaria (2.5 gallon) with a French square filled with de-ionized water. Cotton dental wicks were used to draw water up and present it to flies at the top of the French square. Different concentrations of compounds were introduced into 1:1 mixtures of evaporated milk powder and sucrose. 2 grams of food was provided to flies with compound incorporated at various weights by weight food. If the material was solid, a mortar and pestle was used to homogenize the crushed evaporated milk powder, sucrose, and compound. If the material was a liquid, it was dissolved in acetone and aliquotted into the food slowly until the desired concentration of compound by weight food was achieved. If acetone was used as the carrier throughout the experiment, the food was carefully stirred repeatedly to ensure evaporation so that no more acetone was present in the food. The concentration used to assess mortality was 5% weight compound by weight food. Total mortality was assessed at 5 days after introducing house flies into individual mason jars with food treated with different compounds. […]
Data is presented as average percentage mortality with the standard error of the mean (SEM). This number was compared to the total number of flies introduced to each aquaria for each replicate, and a percentage mortality was calculated. […]

[4] = system: German cockroaches (Blattella germanica); experiment: German cockroach feeding assay (compound in crushed Cheerios); assay type: in vivo; conditions: for percentage mortality compared to the control at two weeks / percentage mortality compared to the control: 3.75% weight compound/weight food; for percentage mortality compared to the control at two weeks: α=0.05 (FIG. 2); for percentage mortality compared to the control: 1, 2, and 3 weeks (FIG. 1); for mortality at two weeks: 15% w/w food, two weeks (FIG. 3)
Experimental: Insects were kept in a constant 12:12-hour light: dark cycle and fed a diet of dry cat food (Purina® Cat Chow Complete®, rolled oats (HyVEE® Old Fashioned Oats), and Fluker's® Cricket Quencher.
Five adult German cockroaches (Blattella germanica) were introduced to mason jars with steel mesh at the top to prevent escape. 266.6 mg of crushed Cheerios™ (approximately two cheerios) was mixed with compound at varying concentrations by weight food. If the material was solid, a mortar and pestle was used to homogenize the crushed Cheerios and compound. If the material was a liquid, it was dissolved in acetone and aliquoted into the food slowly until the desired concentration of compound by weight food was achieved. If acetone was used as the carrier throughout the experiment, the food was carefully stirred repeatedly to ensure evaporation so that no more acetone was present in the food. This was done to prevent mortality due to the presence of solvent in the treated food. Controls consisted of food that was treated with approximately 1 mL of just acetone. […] Concentrations used to assess mortality were 3.75% and 15% weight compound by weight food. Total mortality was assessed at 2 weeks after introducing cockroaches into individual mason jars with food treated with different compounds.
Data is presented as average percentage mortality with the standard error of the mean (SEM). A minimum of three replicates were performed for each compound and a ANOVA with a post-hoc Student Newman-Kuels test was performed to compare individual treatments to the control (α=0.05).

[5] = system: Northern house mosquitoes (Culex pipiens); conditions: 0.1%

SMILES: CC(C)=CCCC(C)CCOC(=O)COc1cc(C)ccc1C(C)C (centres unmarked)
- toxicity and palatability in choice assay [1]: significant levels of toxicity

SMILES: CCCCCOC(=O)COc1cc(C)ccc1C(C)C [amyl ester of thymyloxyacetic acid, amyl thymyloxyacetate]
- toxicity and palatability in choice assay [1]: significant levels of toxicity

SMILES: OB(O)O [boric acid, reference compound]
- percentage mortality at 120 hours [2]: 100%

SMILES: O=C(CCCCC(=O)OC/C=C/c1ccccc1)OC/C=C/c1ccccc1 [dicinnamyl adipate]
- percentage mortality with added Z-9-tricosene [3]: higher percentage mortality; also recorded: increased toxicity

SMILES: CC(C)=CCCC(C)CC(=O)OCC(O)COC(=O)CC(C)CCC=C(C)C (centres unmarked) [dicitronelloyl glycerol, dicitronelloylglycerol]
- percentage mortality compared to the control at two weeks [4]: statistically significant percentage mortality compared to the control

SMILES: CC(C)=CCCC(C)CC(=O)OCCOC(=O)CC(C)CCC=C(C)C (centres unmarked) [ethylene dicitronellate]
- percentage mortality compared to the control [4]: considerably higher percentage mortality at all time points compared to the control group
- percentage mortality compared to the control ([4]; listed as Ethylene dicitronellate): considerably higher percentage mortality compared to the control
- percentage mortality compared to the control at two weeks [4]: statistically significant percentage mortality compared to the control
- mortality at two weeks [4]: 100%

SMILES: CC(C)=CCC/C(C)=C/COC(=O)COc1cc(C)ccc1C(C)C [geranyl thymyloxyacetate]
- toxicity and palatability in choice assay [1]: significant levels of toxicity

SMILES: CC(C)=CCCC(C)CC(=O)OC1C(OC(=O)CC(C)CCC=C(C)C)C(OC(=O)CC(C)CCC=C(C)C)C(OC(=O)CC(C)CCC=C(C)C)C(OC(=O)CC(C)CCC=C(C)C)C1OC(=O)CC(C)CCC=C(C)C (centres unmarked) [hexacitronellyl inositol, hexacitronelloylinositol]
- mortality at two weeks [4]: 100%

SMILES: Cc1ccc(C(C)C)c(OCC(=O)OC(C)C)c1 [isopropyl ester of thymyloxyacetic acid]
- toxicity and palatability in choice assay [1]: significant levels of toxicity

SMILES: Cc1ccc(C(C)C)c(O)c1 [thymol, reference compound]
- percentage mortality at 120 hours [2]: 25±10.7%

SMILES: Cc1ccc(C(C)C)c(OCC(=O)O)c1 [thymyloxyacetic acid]
- mortality compared with boric acid [2]: performed similarly
- percentage mortality at 48 hours [2]: 26.7%
- percentage mortality at 72 hours [2]: 80%
- percentage mortality at 96 hours [2]: 93.3%
- percentage mortality at 120 hours [2]: 100%
- percentage mortality compared to boric acid (FIG. 8 legend) ([5]; 96, 120, and 144 hours): higher numerical percentage mortality than boric acid
- percentage mortality compared to the sucrose-only control ([5]; 96, 120, and 144 hours (FIG. 8)): statistically significant percentage mortality compared to the sucrose-only control
- percentage mortality compared to boric acid ([5]; 120 and 144 hours): much higher numerical percentage mortality compared to boric acid
- maximum percentage mortality ([5]; 144 hours after introduction): 95±3.53%
- performance compared with boric acid ([5]; all time points, lack of statistical significance): performed as well as boric acid
